Structures are written as SMILES.

Chain of S. pneumoniae Topoisomerase IV ATPase (ParE) (Q59961 whole entry): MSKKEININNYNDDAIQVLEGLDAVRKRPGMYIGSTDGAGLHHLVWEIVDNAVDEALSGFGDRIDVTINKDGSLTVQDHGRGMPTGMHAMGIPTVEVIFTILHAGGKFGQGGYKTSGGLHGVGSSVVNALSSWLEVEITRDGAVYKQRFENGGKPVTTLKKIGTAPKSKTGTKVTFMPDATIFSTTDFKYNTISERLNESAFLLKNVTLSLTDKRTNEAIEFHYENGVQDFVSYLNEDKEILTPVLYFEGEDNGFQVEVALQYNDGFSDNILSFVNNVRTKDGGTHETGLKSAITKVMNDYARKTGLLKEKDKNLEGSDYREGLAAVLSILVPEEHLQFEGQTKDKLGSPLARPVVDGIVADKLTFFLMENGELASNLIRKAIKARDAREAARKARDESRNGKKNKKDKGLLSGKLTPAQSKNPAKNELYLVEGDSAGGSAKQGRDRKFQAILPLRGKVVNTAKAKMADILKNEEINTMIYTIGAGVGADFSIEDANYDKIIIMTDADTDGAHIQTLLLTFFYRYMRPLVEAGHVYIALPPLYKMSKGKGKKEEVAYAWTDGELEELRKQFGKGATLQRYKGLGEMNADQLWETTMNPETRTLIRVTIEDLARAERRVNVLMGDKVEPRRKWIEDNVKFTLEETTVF

This assay addresses S. pneumoniae Topoisomerase IV ATPase (ParE) (Streptococcus pneumoniae serotype 4, UniProt Q59961). The assay can be described thus: S. pneumoniae Topoisomerase IV ATPase inhibition. The assay is classed as biochemical. To be noted: values marked * are an average of two or more data points, read-out: % Inh (13 μM) of S. pneumoniae Topoisomerase IV ATPase. The procedure, abridged:
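Malachite green/ammonium molybdate phosphate detection, A650. 1.25 nM ParE, 160 μM ATP, sheared salmon sperm DNA 5 μg/ml, 20 mM Tris pH 8.0, 8.0 mM MgCl2. Controls: 2% DMSO = 0%, 20 μM EDTA = 100% inhibition; IC50 over 10 concentrations.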
On to `COc1cc(Nc2ncc(-c3ccc4c(c3)C(=O)NS4(=O)=O)c(-n3nc(C(F)(F)F)cc3C)n2)cc(OC)c1` [Example 830, 5-{2-[(3,5-dimethoxyphenyl)amino]-4-[5-methyl-3-(trifluoromethyl)-1H-pyrazol-1-yl]pyrimidin-5-yl}-1,2-benzothiazol-3(2H)-one 1,1-dioxide], for which the inhibition at 13 µM was determined as 100%.

For `COc1cc(Nc2ncc(-c3ccc4c(c3)C(=O)NS4(=O)=O)c(-n3ccc(C(F)(F)F)n3)n2)cc(OC)c1` [Example 831, 5-{2-[(3,5-dimethoxyphenyl)amino]-4-[3-(trifluoromethyl)-1H-pyrazol-1-yl]pyrimidin-5-yl}-1,2-benzothiazol-3(2H)-one 1,1-dioxide], the inhibition at 13 µM was determined as 89%.

On to `Cc1cc(C)cc(Nc2ncc(-c3ccc4c(c3)C(=O)NS4(=O)=O)c(-n3nc(C(F)(F)F)cc3C)n2)c1` [Example 832, 5-{2-[(3,5-dimethylphenyl)amino]-4-[5-methyl-3-(trifluoromethyl)-1H-pyrazol-1-yl]pyrimidin-5-yl}-1,2-benzothiazol-3(2H)-one 1,1-dioxide], for which the inhibition at 13 µM worked out at 100%.

With `Cc1cc(C)cc(Nc2ncc(-c3ccc4c(c3)C(=O)NS4(=O)=O)c(-n3ccc(C(F)(F)F)n3)n2)c1` [Example 833, 5-{2-[(3,5-dimethylphenyl)amino]-4-[3-(trifluoromethyl)-1H-pyrazol-1-yl]pyrimidin-5-yl}-1,2-benzothiazol-3(2H)-one 1,1-dioxide], the inhibition at 13 µM is 100%.

Turning to `COc1cc(Nc2ncc(-c3cnc(OC)c(C(=O)NS(=O)(=O)c4sc(NC(C)=O)nc4C)c3)c(-n3nc(C(F)(F)F)cc3C)n2)cc(OC)c1` [Example 834, N-{[2-(acetylamino)-4-methyl-1,3-thiazol-5-yl]sulfonyl}-5-{2-[(3,5-dimethoxyphenyl)amino]-4-[5-methyl-3-(trifluoromethyl)-1H-pyrazol-1-yl]pyrimidin-5-yl}-2-methoxypyridine-3-carboxamide], the inhibition at 13 µM came to 98%.

In the case of `COc1cc(Nc2ncc(-c3cnc(OC)c(C(=O)NS(=O)(=O)CC(F)(F)F)c3)c(-n3nc(C(F)(F)F)cc3C)n2)cc(OC)c1` [Example 835, 5-{2-[(3,5-dimethoxyphenyl)amino]-4-[5-methyl-3-(trifluoromethyl)-1H-pyrazol-1-yl]pyrimidin-5-yl}-2-methoxy-N-[(2,2,2-trifluoroethyl)sulfonyl]pyridine-3-carboxamide], the inhibition at 13 µM came to 95%.

Turning to `COc1cc(Nc2ncc(-c3cnc(OC)c(C(=O)NS(=O)(=O)c4c(C)noc4C)c3)c(-n3nc(C(F)(F)F)cc3C)n2)cc(OC)c1` [Example 836, 5-{2-[(3,5-dimethoxyphenyl)amino]-4-[5-methyl-3-(trifluoromethyl)-1H-pyrazol-1-yl]pyrimidin-5-yl}-N-[(3,5-dimethyl-1,2-oxazol-4-yl)sulfonyl]-2-methoxypyridine-3-carboxamide], the inhibition at 13 µM is 94%.

Consider `COc1cc(Nc2ncc(-c3cnc(OC)c(C(=O)NS(=O)(=O)c4sc(C)nc4C)c3)c(-n3nc(C(F)(F)F)cc3C)n2)cc(OC)c1` [Example 837, 5-{2-[(3,5-dimethoxyphenyl)amino]-4-[5-methyl-3-(trifluoromethyl)-1H-pyrazol-1-yl]pyrimidin-5-yl}-N-[(2,4-dimethyl-1,3-thiazol-5-yl)sulfonyl]-2-methoxypyridine-3-carboxamide], for which the inhibition at 13 µM stood at 94%.

For `COc1cc(Nc2ncc(-c3cnc(OC)c(C(=O)NS(=O)(=O)CS(C)(=O)=O)c3)c(-n3nc(C(F)(F)F)cc3C)n2)cc(OC)c1` [Example 838, 5-{2-[(3,5-dimethoxyphenyl)amino]-4-[5-methyl-3-(trifluoromethyl)-1H-pyrazol-1-yl]pyrimidin-5-yl}-2-methoxy-N-{[(methylsulfonyl)methyl]sulfonyl}pyridine-3-carboxamide], the inhibition at 13 µM is 99%.

As for `COc1cc(Nc2ncc(-c3cnc(OC)c(C(=O)NS(=O)(=O)c4cn(C)cn4)c3)c(-n3nc(C(F)(F)F)cc3C)n2)cc(OC)c1` [Example 839, 5-{2-[(3,5-dimethoxyphenyl)amino]-4-[5-methyl-3-(trifluoromethyl)-1H-pyrazol-1-yl]pyrimidin-5-yl}-2-methoxy-N-[(1-methyl-1H-imidazol-4-yl)sulfonyl]pyridine-3-carboxamide], the inhibition at 13 µM was 100%.

With `COc1cc(Nc2ncc(-c3cnc(OC)c(C(=O)NS(=O)(=O)C4=CCS(=O)(=O)C4)c3)c(-n3nc(C(F)(F)F)cc3C)n2)cc(OC)c1` [Example 840, 5-{2-[(3,5-dimethoxyphenyl)amino]-4-[5-methyl-3-(trifluoromethyl)-1H-pyrazol-1-yl]pyrimidin-5-yl}-N-[(1,1-dioxido-2,5-dihydrothiophen-3-yl)sulfonyl]-2-methoxypyridine-3-carboxamide], the inhibition at 13 µM was determined as 99%.

Regarding `COc1cc(Nc2ncc(-c3cnc(OC)c(C(=O)NS(=O)(=O)c4c(C)nn(C)c4C)c3)c(-n3nc(C(F)(F)F)cc3C)n2)cc(OC)c1` [Example 842, 5-{2-[(3,5-dimethoxyphenyl)amino]-4-[5-methyl-3-(trifluoromethyl)-1H-pyrazol-1-yl]pyrimidin-5-yl}-2-methoxy-N-[(1,3,5-trimethyl-1H-pyrazol-4-yl)sulfonyl]pyridine-3-carboxamide], the inhibition at 13 µM is 97%.

For the compound `COc1cc(Nc2ncc(-c3cnc(OC)c(C(=O)NS(=O)(=O)c4cccc(C(C)=O)c4)c3)c(-n3nc(C(F)(F)F)cc3C)n2)cc(OC)c1` [Example 844, N-[(3-acetylphenyl)sulfonyl]-5-{2-[(3,5-dimethoxyphenyl)amino]-4-[5-methyl-3-(trifluoromethyl)-1H-pyrazol-1-yl]pyrimidin-5-yl}-2-methoxypyridine-3-carboxamide], the inhibition at 13 µM was determined as 100%.

As for `COc1cc(Nc2ncc(-c3cnc(OC)c(C(=O)NS(=O)(=O)c4cn(C)nc4C(F)(F)F)c3)c(-n3nc(C(F)(F)F)cc3C)n2)cc(OC)c1` [Example 845, 5-{2-[(3,5-dimethoxyphenyl)amino]-4-[5-methyl-3-(trifluoromethyl)-1H-pyrazol-1-yl]pyrimidin-5-yl}-2-methoxy-N-{[1-methyl-3-(trifluoromethyl)-1H-pyrazol-4-yl]sulfonyl}pyridine-3-carboxamide], the inhibition at 13 µM worked out at 92%.

For the compound `COc1cc(Nc2ncc(-c3cnc(OC)c(C(=O)NS(=O)(=O)c4ccc(CNC(C)=O)cc4)c3)c(-n3nc(C(F)(F)F)cc3C)n2)cc(OC)c1` [Example 846, N-({4-[(acetylamino)methyl]phenyl}sulfonyl)-5-{2-[(3,5-dimethoxyphenyl)amino]-4-[5-methyl-3-(trifluoromethyl)-1H-pyrazol-1-yl]pyrimidin-5-yl}-2-methoxypyridine-3-carboxamide], the inhibition at 13 µM was 97%.

Turning to `COc1cc(Nc2ncc(-c3cnc(OC)c(C(=O)NS(=O)(=O)c4cn(C)c(=O)n(C)c4=O)c3)c(-n3nc(C(F)(F)F)cc3C)n2)cc(OC)c1` [Example 847, 5-{2-[(3,5-dimethoxyphenyl)amino]-4-[5-methyl-3-(trifluoromethyl)-1H-pyrazol-1-yl]pyrimidin-5-yl}-N-[(1,3-dimethyl-2,4-dioxo-1,2,3,4-tetrahydropyrimidin-5-yl)sulfonyl]-2-methoxypyridine-3-carboxamide], the inhibition at 13 µM was 97%.

On to `COc1cc(Nc2ncc(-c3cnc(OC)c(C(=O)NS(=O)(=O)CCN4C(=O)CCC4=O)c3)c(-n3nc(C(F)(F)F)cc3C)n2)cc(OC)c1` [Example 848, 5-{2-[(3,5-dimethoxyphenyl)amino]-4-[5-methyl-3-(trifluoromethyl)-1H-pyrazol-1-yl]pyrimidin-5-yl}-N-{[2-(2,5-dioxopyrrolidin-1-yl)ethyl]sulfonyl}-2-methoxypyridine-3-carboxamide], for which the inhibition at 13 µM turned out to be 100%.

`COc1cc(Nc2ncc(-c3cnc(SC)c(C(=O)O)c3)c(-n3ccc(C(F)(F)F)n3)n2)cc(OC)c1` [Example 851, 5-{2-[(3,5-dimethoxyphenyl)amino]-4-[3-(trifluoromethyl)-1H-pyrazol-1-yl]pyrimidin-5-yl}-2-(methylsulfanyl)pyridine-3-carboxylic acid]: the inhibition at 13 µM stood at 98%.

Regarding `COc1cc(Nc2ncc(-c3cnc(SC)c(C(=O)NS(C)(=O)=O)c3)c(-n3ccc(C(F)(F)F)n3)n2)cc(OC)c1` [Example 852, 5-{2-[(3,5-dimethoxyphenyl)amino]-4-[3-(trifluoromethyl)-1H-pyrazol-1-yl]pyrimidin-5-yl}-2-(methylsulfanyl)-N-(methylsulfonyl)pyridine-3-carboxamide], the inhibition at 13 µM amounted to 100%.

`COc1cc(Nc2ncc(-c3cnc(SC)c(C(=O)O)c3)c(-n3nc(C(F)(F)F)cc3C)n2)cc(OC)c1` [Example 854, 5-{2-[(3,5-dimethoxyphenyl)amino]-4-[5-methyl-3-(trifluoromethyl)-1H-pyrazol-1-yl]pyrimidin-5-yl}-2-(methylsulfanyl)pyridine-3-carboxylic acid]: the inhibition at 13 µM was determined as 100%.

As for `COc1cc(Nc2ncc(-c3cnc(SC)c(C(=O)NS(C)(=O)=O)c3)c(-n3nc(C(F)(F)F)cc3C)n2)cc(OC)c1` [Example 855, 5-{2-[(3,5-dimethoxyphenyl)amino]-4-[5-methyl-3-(trifluoromethyl)-1H-pyrazol-1-yl]pyrimidin-5-yl}-2-(methylsulfanyl)-N-(methylsulfonyl)pyridine-3-carboxamide], the inhibition at 13 µM was found to be 94%.

With `COc1cc(C)cc(Nc2ncc(-c3cnc(OC)c(C(=O)NS(C)(=O)=O)c3)c(-n3ccc(C(F)(F)F)n3)n2)c1` [Example 856, 2-methoxy-5-{2-[(3-methoxy-5-methylphenyl)amino]-4-[3-(trifluoromethyl)-1H-pyrazol-1-yl]pyrimidin-5-yl}-N-(methylsulfonyl)pyridine-3-carboxamide], the inhibition at 13 µM was found to be 100%.
